Results reported in US20230213520A1, “IN VITRO METHOD FOR THE PROGNOSIS OF DISEASE PROGRESSION IN A PATIENT THAT SUFFERS FROM OR IS AT RISK OF DEVELOPING A SOLID TUMOR” (Bergonié Institute, priority 2020, published 2023).
Values joined by “and” are separate entries in the source; they are usually repeats but may differ in a detail not shown here. Equal values may be shown once.

Columns and labels:
[1] = REGOMUNE phase II study: safety (adverse events, CTCAE v5.0); set-up: species or system human; details: in vivo
Experimental: After an assessment of eligibility, patients received Regorafenib 160 mg per day on a three weeks on/one week off schedule, in cycles of 28 days. Avelumab treatment began on Day 15 cycle 1, by intravenous infusion once every 2 weeks. Treatment was continued until disease progression, unacceptable toxicity, investigator's decision to discontinue, or withdrawal of patient consent. Participants were monitored for adverse events at every follow-up assessment. Adverse events were graded according to National Cancer Institute Common Terminology Criteria for Adverse Events version 5.0. Laboratory assessments were done at baseline, and every 2 weeks afterwards until treatment discontinuation. Regorafenib dose modifications to manage adverse events were allowed (see study protocol). The dose of Regorafenib could be reduced to 120 mg and then to 80 mg. […] Tumor lesions were assessed according to RECIST version 1.1 at baseline (within 4 weeks prior to Cycle 1 Day 1), and every 8 weeks until disease progression or the start of another treatment. […]
All enrolled patients who initiated the study treatment were included in the safety analysis. […] The median follow-up was calculated using the reverse Kaplan-Meier method. […] Quantitative variables were described using the median and range, and qualitative variables were described using frequency, percentage and 95% confidence interval (binomial law). […]

[2] = system: metastatic colorectal cancer; details: cited from earlier work
[3] = system: immunosuppressive macrophage infiltration; details: preclinical model of metastatic colorectal cancer; cited from earlier work
[4] = Regorafenib single agent in addition to supportive care, pivotal study

Compound | Patients with dose reduction or temporary treatment discontinuation because of a drug-related adverse event ([1]; human) [patients] | Patients with grade 3 or 4 treatment-related adverse events that needed some dose reduction ([2]; CORRECT (as well as CONCUR) study, single agent) | Median overall survival [2, 4] [months] | Median progression-free survival [2, 4] | Objective response rate ([2]; pivotal randomized study) [%] | Effect on immunosuppressive macrophage infiltration [3] | Patients with dose reduction or temporary treatment discontinuation because of a drug-related adverse event [1] [patients]
CNC(=O)c1cc(Oc2ccc(NC(=O)Nc3ccc(Cl)c(C(F)(F)F)c3)c(F)c2)ccn1 [Regorafenib] | 41 | up to 54% | 6.4 | 1.9 months and 2 months | 1 | reduce immunosuppressive macrophage infiltration | 
Avelumab |  |  |  |  |  |  | 17
